This note sets out measurements from patent US9266830B2, “Pesticidal arylpyrrolidines” (Bayer Intellectual Property GmbH, priority 2007, dated 2016).

SMILES strings stand for the structures.

What all share (assay type): in vivo
The test system of one data set is Boophilus microplus. The data set can be described thus: Boophilus microplus test (injection). The following applies: application rate 20 μg/animal, adult engorged females, after 7 days. The method in brief: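 Compound dissolved and diluted in DMSO, then injected into the abdomen of adult engorged female ticks, five per dose. Ticks held in a climate chamber and fertile egg deposition monitored. Read at 7 days as %, 100% = all eggs infertile, 0% = all fertile.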

The subject of a further data set is Lucilia cuprina larvae. Kind of data set: Lucilia cuprina test (larvae in minced horse meat). The following applies: Lucilia cuprina, 48 h, read-out: activity (mortality in %). As to the method: (§1) Solvent: dimethyl sulfoxide
To produce a suitable preparation of active compound, 10 mg of active compound are dissolved in 0.5 ml solvent, and the concentrate is diluted with water to the desired concentration. Approximately 20-30 (Lucilia cuprina larvae) are transferred into a test tube containing 1 cm^3 of minced horse meat and 0.5 ml aqueous dilution of test compound. After 2 days mortality in % is determined 100% means that all the larvae have been killed; 0% means that none of the larvae have been killed.

The next data set relates to Musca domestica. Kind of data set: Musca domestica test (sugar sponge). How it is done:
as §1
To produce a suitable preparation of active compound, 10 mg of active compound are dissolved in 0.5 ml solvent, and the concentrate is diluted with water to the desired concentration. Prior to the assay, a piece or kitchen sponge is soaked with a mixture of sugar and compound solution and placed into a container. 10 adults (Musca domestica) are placed into the container and closed with a perforated lid. After 2 days mortality in % is determined. 100% means that all the flies have been killed; 0% means that none of the flies have been killed.

Another data set deals with Ctenocephalides felis. Kind of data set: Ctenocephalides felis test (CTECFE), blood feeding. The following applies: 48 h, read-out: activity (mortality in %). How it is done:
as §1
To produce a suitable preparation of active compound, 10 mg of active compound are dissolved in 0.5 ml solvent, and the concentrate is diluted with cattle blood to the desired concentration. Approximately 10 to 15 adult unfed (Ctenocepahlides felis) are placed in flea chambers. The blood chamber, are sealed with parafilm on the bottom are filled with cattle blood supplied with compound solution and placed on top of the flea chamber, so that the fleas are able to suck the blood. The blood chamber is heated to 37° C. whereas the flea chamber is kept at room temperature. After 2 days mortality in % is determined 100% means that all the fleas have been killed; 0% means that none of the fleas have been killed.

Data set [1] deals with organic phosphorus agent- and carbamate agent-resistant Myzus persicae. Kind of data set: Test for organic phosphorus agent- and carbamate agent-resistant Myzus persicae (spray, eggplant). Conditions: 100 ppm active ingredient, 7 days. How it is done: If not mentioned otherwise, all sample solutions were prepared as described in Biological Test Example 1 and diluted to the appropriate (predetermined) concentrations.
About 30 to 50 of grown organic phosphorus agent- and carbamate agent-resistant Myzus persicae per seedling were inoculated to leaves at 2-leaf stage of eggplants grown in a pot of 6 cm in diameter, to which, after 1 day from the inoculation, the above prepared water-diluted solution of above active compound of the predetermined concentration was sufficiently sprayed with a spray gun. After the spraying, the pot was left in a greenhouse at room temperature for 7 days, followed by the pest-controlling rate calculated. The test was repeated twice.

The test system of the next data set is Amblyomma hebraeum. The data set can be described thus: Amblyomma hebraeum test (AMBYHE), nymph immersion. As to the method: as §1
To produce a suitable preparation of active compound, 10 mg of active compound are dissolved in 0.5 ml solvent, and the concentrate is diluted with water to the desired concentration. Nymphs of the tick Amblyomma hebraeum are placed in perforated plastic beakers and immersed in aqueous compound solution for one minute. Ticks are transferred to a filter paper in a Petri dish and incubated in a climate chamber for 42 days.
After 42 days mortality in % is determined 100% means that all the ticks have been killed; 0% means that none of the ticks have been killed.

On to `CCC(=O)NCc1sc(N2CCC(c3cc(Cl)c(Cl)c(Cl)c3)(C(F)(F)F)C2)nc1C(F)(F)F` (stereo not shown) [5-142, N-({2-[3-(3,4,5-trichlorophenyl)-3-(trifluoromethyl)pyrrolidin-1-yl]-4-(trifluoromethyl)-1,3-thiazol-5-yl}methyl)propanamide], for which the “activity (100% means that all eggs are infertile)” value with Boophilus microplus worked out at 100%. Further, the mortality at 100 ppm with Lucilia cuprina larvae worked out at 100%; in the data set with Musca domestica (Musca domestica, 48 h, read-out: activity (mortality in %)), 100%; in the data set on Ctenocephalides felis, 100%.

Consider `CCCC(=O)NCc1ccc(N2CCC(c3cc(Cl)c(Cl)c(Cl)c3)(C(F)(F)F)C2)cc1C(F)(F)F` (stereo not shown) [1-328], for which, in data set [1], the “insecticidal rate (pest-controlling rate)” value (“insecticidal rate” below) was found to be 100%.

Regarding `O=C(NCCC(F)(F)F)NCc1ccc(N2CCC(c3cc(Cl)cc(Cl)c3)(C(F)(F)F)C2)cc1C(F)(F)F` (stereo not shown) [1-238], in the data set on Boophilus microplus, the “activity (100% means that all eggs are infertile)” value is on record as 100%. Besides, the “activity (mortality in %)” value came to 90% with Musca domestica (application rate 100 ppm, adults, after 2 days) and 85% in the data set with Amblyomma hebraeum (application rate 100 ppm, nymphs, after 42 days).

On to `CCC(=O)NCc1ccc(N2CCC(c3cc(Cl)cc(C(F)(F)F)c3)(C(F)(F)F)C2)cc1C(F)(F)F` (stereo not shown) [1-356], for which the “insecticidal rate” value in data set [1] is recorded as 100%.

With `CCC(=O)NCc1cnc(N2CCC(c3cc(Cl)c(Cl)c(Cl)c3)(C(F)(F)F)C2)nc1C(F)(F)F` (stereo not shown) [3-142], the “activity (100% means that all eggs are infertile)” value in the data set with Boophilus microplus stood at 100%. Further, the “insecticidal rate” value in data set [1] is 100%.

For the compound `O=C(CC(F)(F)F)NCc1ccc(N2CCC(c3cc(C(F)(F)F)cc(C(F)(F)F)c3)(C(F)(F)F)C2)cc1Cl` (stereo not shown) [1-309], the “activity (100% means that all eggs are infertile)” value in the data set on Boophilus microplus is recorded as 100%. The “insecticidal rate” value in data set [1] is given as 100%.

As for `CCC(=O)NCc1ccc(N2CCC(c3cc(Cl)cc(Cl)c3)(C(F)(F)F)C2)cc1C(F)(F)F` (stereo not shown) [1-143], the “activity (100% means that all eggs are infertile)” value in the data set with Boophilus microplus is given as 100%. Further, in data set [1], the “insecticidal rate” value was 100%. Moreover, the “Activity at 0.8 ppm” value with Amblyomma hebraeum (0.8 ppm, comparison with WO2008/128711) turned out to be 100%. The “Activity at 4 ppm” value in the data set on Amblyomma hebraeum (4 ppm, comparison with WO2008/128711) came out at 100%.

On to `O=C(NCc1ccc(N2CCC(c3cc(Cl)cc(Cl)c3)(C(F)(F)F)C2)cc1C(F)(F)F)c1ccc(Cl)nc1` (stereo not shown) [1-198, 6-chloro-N-{4-[3-(3,5-dichlorophenyl)-3-(trifluoromethyl)-pyrrolidin-1-yl]-2-(trifluoromethyl)benzyl}pyridine-3-carboxyamide], for which the “activity (100% means that all eggs are infertile)” value with Boophilus microplus is 100%. For the same compound, the figures for the mortality at 100 ppm with Lucilia cuprina larvae and in the data set with Ctenocephalides felis were 100% and 90%, respectively.

With `O=C(CC(F)(F)F)NCc1ccc(N2CCC(c3cc(C(F)(F)F)cc(C(F)(F)F)c3)(C(F)(F)F)C2)cc1Br` (stereo not shown) [1-314], the “activity (100% means that all eggs are infertile)” value in the data set on Boophilus microplus worked out at 100%. Also, the “insecticidal rate” value in data set [1] is reported as 100%.

For orientation: mortality means the share of the test organisms that died.
